In ChEMBL document CHEMBL5050844 (2019):

Experiments:
[1] = Induction of anti-CD3/CD28 antibodies-stimulated human T cell activation at 1 uM assessed fold increase in IL-2 secretion measured by ELISA assay; format: functional, T cell line
[2] = Induction of anti-CD3/CD28 antibodies-stimulated human T cell activation at 0.3 uM assessed fold increase in IL-2 secretion measured by ELISA assay; format: functional, T cell line
[3] = Induction of anti-CD3 antibodies-stimulated human T cell activation at 8 uM assessed fold increase in IL-2 secretion measured by ELISA assay; format: functional, T cell line; also: reference of the scale not given here
[4] = Induction of anti-CD3 antibodies-stimulated human T cell activation at 1 uM assessed fold increase in IL-2 secretion measured by ELISA assay; format: functional, T cell line; also: reference of the scale not given here
[5] = Induction of anti-CD3/CD28 antibodies-stimulated human T cell activation at 4 uM assessed fold increase in CD25 expression measured by ELISA assay; format: functional, T cell line
[6] = Induction of anti-CD3/CD28 antibodies-stimulated human T cell activation at 1 uM assessed fold increase in CD25 expression measured by ELISA assay; format: functional, T cell line
[7] = Induction of anti-CD3/CD28 antibodies-stimulated human T cell activation at 0.3 uM assessed fold increase in CD25 expression measured by ELISA assay; format: functional, T cell line
[8] = Induction of anti-CD3 antibodies-stimulated human T cell activation at 8 uM assessed fold increase in CD25 expression measured by ELISA assay; format: functional, T cell line; also: reference of the scale not given here
[9] = Induction of anti-CD3 antibodies-stimulated human T cell activation at 1 uM assessed fold increase in CD25 expression measured by ELISA assay; format: functional, T cell line; also: reference of the scale not given here
[10] = Induction of anti-CD3/CD28 antibodies-stimulated human CD4+ T cell activation at 10 uM assessed fold increase in CD69 expression measured by flow cytometry analysis; format: functional, T cell line
[11] = Induction of anti-CD3/CD28 antibodies-stimulated human CD4+ T cell activation at 1.11 uM assessed fold increase in CD69 expression measured by flow cytometry analysis; format: functional, T cell line
[12] = Induction of anti-CD3/CD28 antibodies-stimulated human CD8+ T cell activation at 1.11 uM assessed fold increase in CD69 expression measured by flow cytometry analysis; format: functional, T cell line
[13] = Induction of anti-CD3/CD28 antibodies-stimulated human CD8+ T cell activation at 10 uM assessed fold increase in cell proliferation measured by flow cytometry analysis; format: functional, T cell line
[14] = Induction of anti-CD3/CD28 antibodies-stimulated human CD8+ T cell activation at 1.11 uM assessed fold increase in cell proliferation measured by flow cytometry analysis; format: functional, T cell line
[15] = Induction of anti-CD3 antibodies-stimulated human CD4+ T cell activation at 10 uM assessed fold increase in CD69 expression measured by flow cytometry analysis; format: functional, T cell line; also: reference of the scale not given here
[16] = Induction of anti-CD3 antibodies-stimulated human CD4+ T cell activation at 1.11 uM assessed fold increase in CD69 expression measured by flow cytometry analysis; format: functional, T cell line; also: reference of the scale not given here
[17] = Induction of anti-CD3 antibodies-stimulated human CD8+ T cell activation at 10 uM assessed fold increase in CD69 expression measured by flow cytometry analysis; format: functional, T cell line; also: reference of the scale not given here
[18] = Induction of anti-CD3 antibodies-stimulated human CD8+ T cell activation at 1.11 uM assessed fold increase in cell proliferation measured by flow cytometry analysis; format: functional, T cell line; also: reference of the scale not given here
[19] = Induction of anti-CD3/CD28 antibodies-stimulated human T cell activation at 1.11 uM assessed fold increase in GM-CSF secretion measured by ELISA assay; format: functional, T cell line
[20] = Induction of anti-CD3 antibodies-stimulated human T cell activation at 10 uM assessed fold increase in GM-CSF secretion measured by ELISA assay; format: functional, T cell line; also: reference of the scale not given here
[21] = Induction of anti-CD3 antibodies-stimulated human T cell activation at 1.11 uM assessed fold increase in GM-CSF secretion measured by ELISA assay; format: functional, T cell line; also: reference of the scale not given here
[22] = Induction of anti-CD3/CD28 antibodies-stimulated human T cell activation at 10 uM assessed fold increase in TNF-alpha secretion measured by ELISA assay; format: functional, T cell line
[23] = Induction of anti-CD3 antibodies-stimulated human T cell activation at 10 uM assessed fold increase in TNF-alpha secretion measured by ELISA assay; format: functional, T cell line; also: reference of the scale not given here
[24] = Induction of anti-CD3/CD28 antibodies-stimulated human T cell activation at 1.11 uM assessed fold increase in IFN-gamma secretion measured by ELISA assay; format: functional, T cell line
[25] = Induction of anti-CD3 antibodies-stimulated human T cell activation at 10 uM assessed fold increase in IFN-gamma secretion measured by ELISA assay; format: functional, T cell line; also: reference of the scale not given here
[26] = Induction of allogenic human T cell activation at 10 uM assessed fold increase in cell proliferation; format: functional, T cell line
[27] = Induction of anti-CD3 antibodies-stimulated human exhausted T cell activation assessed fold increase in IL-2 secretion measured by ELISA assay; format: functional, T cell line; also: reference of the scale not given here
[28] = Induction of anti-CD3 antibodies-stimulated human exhausted T cell activation assessed fold increase in GM-CSF secretion measured by ELISA assay; format: functional, T cell line; also: reference of the scale not given here
[29] = Induction of anti-CD3 antibodies-stimulated human exhausted CD4+ T cell activation assessed fold increase in CTLA4 expression measured by flow cytometry analysis; format: functional, T cell line; also: reference of the scale not given here
[30] = Induction of anti-CD3 antibodies-stimulated human exhausted CD8+ T cell activation assessed fold increase in CTLA4 expression measured by flow cytometry analysis; format: functional, T cell line; also: reference of the scale not given here
[31] = Induction of anti-CD3/CD28 antibodies-stimulated human anergic T cell activation at 10 uM assessed fold increase in IFN-gamma secretion measured by ELISA assay; format: functional, T cell line
[32] = Induction of anti-CD3/CD28 antibodies-stimulated human anergic T cell activation at 0.37 uM assessed fold increase in IFN-gamma secretion measured by ELISA assay; format: functional, T cell line
B cell = assay: Induction of anti-IgM-stimulated human CD20+ B cell activation at 10 to 1000 uM assessed as increase in CD69 expression measured as mean fluorescence intensity AUC by flow cytometry analysis; format: functional, cell-based; conditions: dose 10-1000 µM
[33] = Induction of activation of human CD56+ CD3- NK cells co-cultured with human K562 cells in 1:1 ratio and assessed as increase in IFN-gamma secretion at 10 uM measured by ELISA assay; format: functional, Natural killer cell
[34] = Induction of activation of human CD56+ CD3- NK cells co-cultured with human K562 cells in 1:1 ratio and assessed as increase in TNF-alpha secretion at 10 uM measured by ELISA assay; format: functional, Natural killer cell
[35] = Induction of activation of human CD56+ CD3- NK cells co-cultured with human K562 cells in 1:1 ratio and assessed as increase in IFN-gamma secretion at 2.5 uM measured by ELISA assay; format: functional, Natural killer cell
[36] = Induction of activation of human CD56+ CD3- NK cells co-cultured with human K562 cells in 1:1 ratio and assessed as increase in IFN-gamma secretion at 0.625 uM measured by ELISA assay; format: functional, Natural killer cell
[37] = Induction of activation of human CD56+ CD3- NK cells co-cultured with human K562 cells in 1:1 ratio and assessed as increase in TNF-alpha secretion at 0.625 uM measured by ELISA assay; format: functional, Natural killer cell

SMILES | fold change (FC) [1] | fold change (FC) [2] | fold change (FC) [3] | fold change (FC) [4] | fold change (FC) [5] | fold change (FC) [6] | fold change (FC) [7] | fold change (FC) [8] | fold change (FC) [9] | fold change (FC) [10] | fold change (FC) [11] | fold change (FC) [12] | fold change (FC) [13] | fold change (FC) [14] | fold change (FC) [15] | fold change (FC) [16] | fold change (FC) [17] | fold change (FC) [18] | fold change (FC) [19] | fold change (FC) [20] | also measured
C[C@H](Cc1nncn1C)c1cccc(N2Cc3c(ccnc3C3CC3)C2=O)c1 | 1.01 | 1.01 | >=0.201 | 0.151 | 1.31 | 1.01 | 1.01 | >=1.001 | 0.601 | 1.401 | <=1.2 | <=1.2 | 3.01 | <=2 | 1.201 | <=1.2 | 1.201 | <=2 | 2.01 | 2.01 | fold change (FC) [21]: 1.51; fold change (FC) [22]: 2.01; fold change (FC) [23]: <=1.5; fold change (FC) [24]: <=2; fold change (FC) [25]: 2.01; fold change (FC) [26]: <=2; fold change (FC) [27]: <=2.5; fold change (FC) [28]: <=1.4; fold change (FC) [29]: <=1.4; fold change (FC) [30]: <=1.4; fold change (FC) [31]: 2.51; fold change (FC) [32]: <=2.5; AUC (B cell): 0.5; fold change (FC) [33]: 2.01; fold change (FC) [34]: 2.01; fold change (FC) [35]: 1.01; fold change (FC) [36]: 2.01; fold change (FC) [37]: 1.01
Cn1cnnc1C(F)(F)C(C)(F)c1cccc(N2Cc3c(cc(CN4CC[C@@H](F)C4)cc3C(F)(F)F)C2=O)c1 (single isomer, unassigned) | >=7.5 | 2.51 | >=0.201 | >=0.201 | 1.51 | 1.51 | 1.31 | >=1.001 | >=1.001 | 1.401 | 1.201 | 1.201 | >4 | 2.01 | >1.601 | 1.401 | 1.401 | >4 | 2.01 | 2.01 | fold change (FC) [21]: 1.51; fold change (FC) [22]: 2.01; fold change (FC) [23]: 1.51; fold change (FC) [24]: 2.01; fold change (FC) [25]: <=2; fold change (FC) [26]: 2.01; fold change (FC) [27]: >3.01; fold change (FC) [28]: 1.41; fold change (FC) [29]: >1.61; fold change (FC) [30]: >1.61; fold change (FC) [31]: >4.01; fold change (FC) [32]: 2.51; AUC (B cell): 1.01; fold change (FC) [33]: >=5; fold change (FC) [34]: >=5; fold change (FC) [35]: 2.01; fold change (FC) [36]: 2.01; fold change (FC) [37]: 1.01
C[C@H](Sc1nncn1C)c1cccc(NC(=O)c2cc(C(=O)N3CC[C@H](O)C3)ccn2)c1 | <=1 | <=1 | <=0.05 | <=0.05 | 1.01 | 1.01 | 1.01 | 0.801 | 0.601 | >1.601 | 1.401 | 1.201 | >4 | >4 | >1.601 | >1.601 | 1.401 | >4 | 2.01 | 2.01 | fold change (FC) [21]: 2.01; fold change (FC) [22]: 2.01; fold change (FC) [23]: 2.01; fold change (FC) [24]: 2.01; fold change (FC) [25]: >4; fold change (FC) [26]: <=2; fold change (FC) [27]: <=2.5; fold change (FC) [28]: <=1.4; fold change (FC) [29]: <=1.4; fold change (FC) [30]: <=1.4; fold change (FC) [31]: 2.51; fold change (FC) [32]: <=2.5; AUC (B cell): < 0.5; fold change (FC) [33]: 1.01; fold change (FC) [34]: <=1; fold change (FC) [35]: <=1; fold change (FC) [36]: <=1; fold change (FC) [37]: <=1
C[C@H](Cc1nncn1C)c1cccc(NC(=O)c2n[nH]c3c2CCC3)c1 | 1.01 | 1.01 | 0.151 | 0.101 | 1.01 | 1.01 | 1.01 | 0.801 | 0.601 | 1.201 | 1.401 | 1.201 | 2.01 | 3.01 | 1.201 | >1.601 | <=1.2 | >4 | <=1.5 | 1.51 | fold change (FC) [21]: <=1.5; fold change (FC) [22]: 2.01; fold change (FC) [23]: <=1.5; fold change (FC) [24]: <=2; fold change (FC) [25]: <=2; fold change (FC) [26]: <=2; fold change (FC) [27]: <=2.5; fold change (FC) [28]: <=1.4; fold change (FC) [29]: <=1.4; fold change (FC) [30]: <=1.4; fold change (FC) [31]: <=2.5; fold change (FC) [32]: <=2.5; AUC (B cell): 0.5; fold change (FC) [33]: 2.01; fold change (FC) [34]: 1.01; fold change (FC) [35]: <=1; fold change (FC) [36]: 1.01; fold change (FC) [37]: 1.01
